Test results: patent US7105521B2, “Eugenosedin-A based pharmacoligical agents” (Syn-Tech Chem & Pharm Co., Ltd., priority 2003, dated 2006)

Assay: LPS-induced hypotension
Format: in vivo, Wistar rats
Conditions: LPS 10 mg kg^−1 i.v.
Protocol: Intravenous injection. The experiments were carried out as previously described (Wu B N. et al., Biochem. Pharmacol., 48:101–109, 1994). In brief, Wistar rats weighing 250–300 grams were anesthetized with pentobarbital sodium (50 mg kg^−1, i.p.). Following tracheal cannulation, systemic arterial BP and HR were recorded from the femoral artery by a pressure transducer (model P10EZ; Spectramed, Oxnard, Calif., U.S.A.) connected to a recorder (GOULD, Valley View, Ohio, Model P50). Body temperature was maintained at 37° C. by an electric heating pad. A femoral vein was cannulated for intravenous injection of drugs and LPS (10 mg kg^−1).

CC=Cc1ccc(OCC(O)CN2CCN(c3ccccc3Cl)CC2)c(OC)c1 (stereo not shown) [eugenosedin-A]
development of hypotension after LPS injection and normalization of BP (i.v. pretreatment): normalized BP within 5 hours
first immediate hypotensive phase after LPS (pretreatment 0.5 mg kg^−1 i.v.): not affected
first immediate hypotensive phase after LPS (pretreatment 1 mg kg^−1 i.v.): attenuated it
second prolonged hypotensive phase after LPS (pretreatment 0.5 and 1 mg kg^−1 i.v.): significantly reduced
